In patent US7994326B2 (Northwestern University, priority 2003, dated 2011):

Legend:
Type in all cases: biochemical
bovine eNOS = molecular target: T1, bovine eNOS (Bos taurus, UniProt P29473); test: NOS enzyme inhibitory assay (hemoglobin capture), eNOS; conditions: Table 1a; for Ki: apparent Ki calculated from IC50, Km 1.7 μM, read-out: calc. Ki eNOS; for IC50: bovine eNOS, 10 μM L-arginine, * = no inhibition observed up to the concentration listed
T1 construct: made in house; host or cells: E. coli (plasmid Bov-eNOSpCW)
Description: (§1) All of the NOS isoforms used were recombinant enzymes overexpressed in E. coli from different sources. Nitric oxide formation from NOS was monitored by the hemoglobin capture assay as described in the literature.
Expression of bovine eNOS: An overnight culture of Bov-eNOSpCW was used to inoculate 0.5 liter (in a 2.8-liter Fernbach flask) of modified TB (20 g of yeast extract, 10 g of bacto-tryptone, 2.65 g of KH2PO4, 4.33 g of Na2HPO4 and 4 ml of glycerol per liter) containing ampicillin ([…]) and chloramphenicol ([…]). The cultures were grown to an OD600 of z0.8 at 22° C. (200 rpm) and induced with 0.5 mM IPTG. One hour before IPTG induction, d-aminolevulinic acid (0.5 mM final) was added and, at the time of IPTG induction, riboflavin ([…]) and ATP (1 mM final) were also added. After induction, the flasks were kept in the dark at 22° C. (200 rpm). The cells were harvested 48 h after induction, and the cell pellet was frozen at −80° C. until purification was carried out.
Purification of bovine eNOS. The purification was typically carried out with eNOS from 2 liters of E. coli culture. The eNOS protein was purified using a modification of the published protocol for nNOS (14). The cells were resuspended in buffer C [50 mM Tris-Cl, pH 7.8, 1 mM EDTA, 1 mM DTT, 10% glycerol (v/v), 150 mM NaCl, 0.1 mM phenylmethylsulfonyl fluoride, […]], lysed by pulsed sonication and then centrifuged to sediment the cell debris. The supernatant was applied to a 2′,5′-ADP Sepharose 4B column equilibrated in buffer D [50 mM Tris-Cl, pH 7.8, 0.1 mM EDTA, 0.1 mM dithiothreitol, 150 mM NaCl, 10% glycerol (v/v)]. The column was washed with 20 column volumes of buffer B and again with 20 column volumes of buffer B containing 600 mM NaCl. Finally, protein was eluted with buffer B containing 600 mM NaCl and 5 mM 2′-AMP. The fractions were screened for absorption in the Soret region (A400) and hemoprotein-containing fractions were pooled and concentrated (Centriprep 50, Amicon). Repeated dilution/concentration [50 mM Tris-Cl, pH 7.8, 0.1 mM EDTA, 0.1 mM dithiothreitol, 10% glycerol (vol/vol)] was used to reach a final concentration of 150 mM NaCl and commensurately reduce the 2′-AMP content. […] The purified eNOS is stored in the presence of 1 mM L-arginine.
eNOS washing: eNOS contains a significant amount of L-arginine, which will interfere with the enzyme assay. The L-arginine can be removed by several dilution and concentration steps using an Amico concentrator. The dilution buffer is 10 ml Tris-HCl 50 mM containing 0.1 mM EDTA, 400 mM NaCl, 10% glycerol and 1 mM beta-mercaptoethanol. The above dilution and concentration operation was repeated three times to give purified eNOS.
(§2) Nitric oxide formation from NOS was monitored by the hemoglobin capture assay as described previously. (Hevel, J. M.; Marletta, M. A. Nitric Oxide Synthase Assays. Methods Enzymol. 1994, […], 250-258).
(§3) The selectivity of an inhibitor is defined as the ratio of the respective Ki values.

murine iNOS = molecular target: T2, murine iNOS (Mus musculus, UniProt P29477); test: NOS enzyme inhibitory assay (hemoglobin capture), iNOS; conditions: Table 1a; for Ki: apparent Ki calculated from IC50, Km […], read-out: calc. Ki iNOS; for IC50: murine iNOS, 10 μM L-arginine
T2 construct: made in house; host or cells: E. coli (plasmid pCWiNOS)
Excerpt: as §1
Enzyme inhibitory assay. All of the NOS isoforms used are recombinant enzymes overexpressed in E. coli from different sources.
iNOS expression: An overnight culture of pCWiNOS was used to inoculate (1:100) larger cultures of Terrific Broth media (12 g/L tryptone, 24 g/L yeast extract, 4 mL/L glycerol, 17 mM KH2PO4, and 72 mM K2HPO4) containing 50 μg/mL ampicillin and 34 μg/mL chloramphenicol at 37° C. At an OD600 of ˜0.5, the culture was cooled to 25° C. and induced by the addition of 1 mM IPTG (final concentration). After approximately 24 h of growth at 25° C., the cells were pelleted at 5300×g, transferred to 50 mL conical tubes, and stored at −80° C.
iNOS purification: Cell pellets from 1.0 L of culture were resuspended in sonication buffer (50 mM Hepes, pH 7.4, 10% glycerol, 10 μg/mL benzamidine, 5 μg/mL leupeptin, 0.2 mM of PMSF, and 1 μg/mL each of pepstatin, chymostatin, and antipain) and lysed by sonication. Centrifugation for 20 min at 13000×g yielded supernatant which contained iNOS active enzyme. iNOS supernatant was loaded onto 1 g of a 2′,5′-ADP-Sepharose 4B resin column. The column was then washed with 20 ml iNOS purification buffer (10 mM K2HPO4, 10% glycerol, 0.5 mM L-arginine, pH 7.4) and 10 μM BH4. Inducible NOS was eluted with 30 ml iNOS purification buffer supplemented with 10 mM 2′(3′)-AMP, 10 μM BH4, and 0.3 M NaCl. The eluent was concentrated to 5 ml by ultrafiltration. The above concentration operation was repeated three times more with 10 ml Hepes buffer supplemented with 10 μM BH4, to give purified inducible NOS.
as §2, §3

rat nNOS = molecular target: T3, rat nNOS (Rattus norvegicus, UniProt P29476); test: NOS enzyme inhibitory assay (hemoglobin capture), nNOS; conditions: Table 1a; for Selectivity n/e: Ki(eNOS)/Ki(nNOS); for Selectivity n/i: Ki(iNOS)/Ki(nNOS); for Ki: apparent Ki calculated from IC50, Km […], read-out: calc. Ki nNOS; for IC50: rat nNOS, 10 μM L-arginine
T3 construct: made in house; host or cells: E. coli (plasmid pCWnNOS)
Description: as §1
After approximately 48 h of post-induction incubation in the dark at 25° C. the cells were pelleted at 5300×g, transferred to 50 mL conical tubes, and stored at −80° C.
nNOS purification: Cell pellets from 2.0 L of culture were resuspended in sonication Buffer A (50 mM Tris Base Buffer, pH 8.0, 10% glycerol), 2 mg/ml lysozyme. 0.5 mM L-arginine. 1 mM EDTA, 0.1 mM PMSF, 1 µg/ml antipain, and 1 μM each of leupeptin, […], and […]) and lysed by sonication. Centrifugation for 1 h at 100000×g yielded supernatant which contained nNOS active enzyme. The supernatant was brought to 2 mM CaCl2 and the protein was loaded onto a 15 ml calmodulin-Sepharose column equilibrated with Buffer A containing 2 mM CaCl2. The column was washed with 100 ml Buffer B (50 mM Hepes, 5 mM DTT, and […]) containing 2 mM CaCl2, 0.5 mM L-arginine, and 10 μM BH4, and eluted with 30 ml Buffer B supplemented with 0.3 M NaCl, 5 mM EGTA, 0.5 mM L-arginine, and 10 μM BH4. The protein was then loaded onto a 5 ml 2′,5′-ADP-Sepharose column equilibrated with Buffer B supplemented with 0.3 M NaCl, 0.5 mM L-arginine, and 10 μM BH4. The column was washed with 25 ml Buffer B containing 0.5 mM L-arginine and 10 μM BH4, and then 25 ml of Buffer B only supplemented with 10 μM BH4 (without L-arginine). Neuronal NOS was eluted with 20 ml Buffer B supplemented with 10 mM 2′(3′)-AMP, 10 μM BH4 and 0.3 M NaCl. The 20 ml eluent was then concentrated to 5 ml by ultrafiltration. The above concentration operation was repeated twice more with 10 ml Buffer B supplemented with 10 µM BH4 to give the purified neuronal NOS.
Nitric oxide formation from NOS was monitored by the hemoglobin capture assay as described previously.
as §3

## CN(C)CCNC1CNCC1Cc1cccc(N)n1 (racemic) [Compound P-30]
Bovine eNOS
  Ki: 140 µM
  IC50: 963 µM
Murine iNOS
  Ki: 195 µM
  IC50: 429 µM
Rat nNOS
  Selectivity n/e: 42.02
  Selectivity n/i: 58.45
  Ki: 3.33 µM
  IC50: 29 µM

## Nc1cccc(CC2CNCC2NCC(N)Cc2ccccc2)n1 (racemic) [Compound P-31]
Bovine eNOS
  Ki: > 1450 µM
  IC50: > 10000 µM
Murine iNOS
  Ki: 238 µM
  IC50: 524 µM
Rat nNOS
  Selectivity n/e: >600
  Selectivity n/i: 98.27
  Ki: 2.42 µM
  IC50: 21 µM

## Nc1cccc(CC2CNCC2NCC(N)Cc2ccccc2)n1 (racemic) [Compound P-32]
Bovine eNOS
  Ki: > 1450 µM
  IC50: > 10000 µM
Murine iNOS
  Ki: 297 µM
  IC50: 655 µM
Rat nNOS
  Selectivity n/e: >632
  Selectivity n/i: 129.09
  Ki: 2.3 µM
  IC50: 20 µM

## Nc1cccc(C[C@H]2CNC[C@H]2NCCNCc2ccccc2)n1 (racemic) [Compound P-33]
Bovine eNOS
  Ki: > 10200 µM
  IC50: > 70000 µM
Murine iNOS
  Ki: 161 µM
  IC50: 355 µM
Rat nNOS
  Selectivity n/e: >8619.5
  Selectivity n/i: 136.36
  Ki: 1.18 µM
  IC50: 10.2 µM

## Nc1cccc(CC2CNCC2NC2CCNC2)n1 (racemic) [Compound P-34]
Bovine eNOS
  Ki: 243 µM
  IC50: 1670 µM
Murine iNOS
  Ki: 174 µM
  IC50: 384 µM
Rat nNOS
  Selectivity n/e: 192.54
  Selectivity n/i: 138.06
  Ki: 1.26 µM
  IC50: 11 µM

## Nc1cccc(CC2CNCC2NC2CCNC2)n1 (racemic) [Compound P-35]
Bovine eNOS
  Ki: 424 µM
  IC50: 2920 µM
Murine iNOS
  Ki: 200 µM
  IC50: 440 µM
Rat nNOS
  Selectivity n/e: 311.85
  Selectivity n/i: 146.75
  Ki: 1.36 µM
  IC50: 11.8 µM

## Cc1cc(N)nc(C[C@H]2CNC[C@H]2NCCN)c1.Cl.Cl.Cl.Cl (racemic) [Compound P-46]
Bovine eNOS
  Ki: 234 µM
  IC50: 1610 µM
Murine iNOS
  Ki: 5.5 µM
  IC50: 12.1 µM
Rat nNOS
  Selectivity n/e: 2462.2
  Selectivity n/i: 58
  Ki: 0.095 µM
  IC50: 0.83 µM

## Cc1cc(N)nc(C[C@H]2CNC[C@@H]2NCCN)c1.Cl.Cl.Cl.Cl (racemic) [Compound P-47]
Bovine eNOS
  Ki: 263 µM
  IC50: 1810 µM
Murine iNOS
  Ki: 32 µM
  IC50: 70.6 µM
Rat nNOS
  Selectivity n/e: 430.7
  Selectivity n/i: 52.5
  Ki: 0.61 µM
  IC50: 5.34 µM
